Source: PubChem BioAssay (NCI)
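Step 1: Grow cells in 96-well plates. Step 2: Expose to compound for 48 hours at 5 concentrations. Step 3: Interpolate endpoints linearly; if unreached, use highest concentration. GI50 marks 50% less growth. Definition used: TGI = concentration required for complete inhibition of growth.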

Experiments:
Assay in all cases: growth of human tumour cells (NCI), 48 h; in the data active = GI50 below about 0.43 µM; inactive = the rest
786-0 renal = tested on: 786-0 renal
A498 renal = tested on: A498 renal
A549 NSCLC = tested on: A549 NSCLC
ACHN renal = tested on: ACHN renal
CAKI-1 renal = tested on: CAKI-1 renal
CCRF-CEM leukemia = tested on: CCRF-CEM leukemia
DU-145 prostate = tested on: DU-145 prostate
EKVX NSCLC = tested on: EKVX NSCLC
HCC-2998 colon = tested on: HCC-2998 colon
HCT-15 colon = tested on: HCT-15 colon
HL-60(TB) leukemia = tested on: HL-60(TB) leukemia
HT29 colon = tested on: HT29 colon
M14 melanoma = tested on: M14 melanoma
MCF7 breast = tested on: MCF7 breast
MDA-MB-435 = tested on: MDA-MB-435
NCI/ADR-RES ovarian = tested on: NCI/ADR-RES ovarian
OVCAR-5 ovarian = tested on: OVCAR-5 ovarian
PC-3 prostate = tested on: PC-3 prostate
SN12C renal = tested on: SN12C renal
SNB-19 CNS = tested on: SNB-19 CNS
SW-620 colon = tested on: SW-620 colon
TK-10 renal = tested on: TK-10 renal
UACC-257 melanoma = tested on: UACC-257 melanoma
UACC-62 melanoma = tested on: UACC-62 melanoma
UO-31 renal = tested on: UO-31 renal
HCT-116 colon = tested on: HCT-116 colon
HOP-62 NSCLC = tested on: HOP-62 NSCLC
HOP-92 NSCLC = tested on: HOP-92 NSCLC
HS 578T breast = tested on: HS 578T breast
IGROV1 ovarian = tested on: IGROV1 ovarian
K-562 leukemia = tested on: K-562 leukemia
KM12 colon = tested on: KM12 colon
MALME-3M melanoma = tested on: MALME-3M melanoma
MDA-MB-231 breast = tested on: MDA-MB-231 breast
NCI-H23 lung = tested on: NCI-H23 lung
NCI-H460 lung = tested on: NCI-H460 lung
NCI-H522 lung = tested on: NCI-H522 lung
OVCAR-3 ovarian = tested on: OVCAR-3 ovarian
OVCAR-4 ovarian = tested on: OVCAR-4 ovarian
OVCAR-8 ovarian = tested on: OVCAR-8 ovarian
RPMI-8226 leukemia = tested on: RPMI-8226 leukemia
SF-268 CNS = tested on: SF-268 CNS
SF-295 CNS = tested on: SF-295 CNS
SF-539 CNS = tested on: SF-539 CNS
SK-MEL-2 melanoma = tested on: SK-MEL-2 melanoma
SK-MEL-28 melanoma = tested on: SK-MEL-28 melanoma
SK-MEL-5 melanoma = tested on: SK-MEL-5 melanoma
SK-OV-3 ovarian = tested on: SK-OV-3 ovarian
SNB-75 CNS = tested on: SNB-75 CNS
U251 CNS = tested on: U251 CNS
BT-549 breast = tested on: BT-549 breast
COLO 205 colon = tested on: COLO 205 colon
LOX IMVI melanoma = tested on: LOX IMVI melanoma
MOLT-4 leukemia = tested on: MOLT-4 leukemia
NCI-H226 lung = tested on: NCI-H226 lung
RXF 393 renal = tested on: RXF 393 renal
SR leukemia = tested on: SR leukemia

c1cc(-c2ccc(-c3ccc(C4=NC5CCCCC5N4)cc3)o2)ccc1C1=NC2CCCCC2N1 (stereo unspecified)
2.89 µM: TGI (HT29 colon)
2.53 µM: TGI (MCF7 breast)
3.33 µM: TGI (DU-145 prostate)
4.55 µM: TGI (OVCAR-5 ovarian)
3.42 µM: TGI (EKVX NSCLC)
3.28 µM: TGI (UACC-257 melanoma)
5.7 µM: TGI (ACHN renal)
4.86 µM: TGI (HL-60(TB) leukemia)
3.14 µM: TGI (A549 NSCLC) | TGI (UACC-62 melanoma)
9.04 µM: TGI (A498 renal)
4.84 µM: TGI (MDA-MB-435)
2.8 µM: TGI (SNB-19 CNS)
3.03 µM: TGI (SN12C renal)
2.56 µM: TGI (HCC-2998 colon)
> 100 µM: TGI (CAKI-1 renal) | TGI (CCRF-CEM leukemia) | TGI (NCI/ADR-RES ovarian) | TGI (SW-620 colon)
2.78 µM: TGI (PC-3 prostate)
3.01 µM: TGI (M14 melanoma)
6.89 µM: TGI (UO-31 renal)
16.4 µM: TGI (TK-10 renal)
79.4 µM: TGI (HCT-15 colon)
2.81 µM: TGI (786-0 renal)

CCCCCC[C@H]1CC(=O)C2CCCC[C@@]23CC[C@H](CCl)N13 (stereo partly specified) (tested in a mixture with another compound)
60.4 µM: TGI (HS 578T breast)
90.5 µM: TGI (CCRF-CEM leukemia)
46.5 µM: TGI (HL-60(TB) leukemia)
64.6 µM: TGI (OVCAR-8 ovarian)
61.6 µM: TGI (RPMI-8226 leukemia)
96.9 µM: TGI (MCF7 breast)
50.7 µM: TGI (SK-MEL-5 melanoma)
> 100 µM: TGI (786-0 renal) | TGI (A498 renal) | TGI (A549 NSCLC) | TGI (ACHN renal) | TGI (CAKI-1 renal) | TGI (DU-145 prostate) | TGI (EKVX NSCLC) | TGI (HCC-2998 colon) | TGI (HCT-116 colon) | TGI (HCT-15 colon) | TGI (HOP-62 NSCLC) | TGI (HT29 colon) | TGI (IGROV1 ovarian) | TGI (K-562 leukemia) | TGI (KM12 colon) | TGI (M14 melanoma) | TGI (MALME-3M melanoma) | TGI (MDA-MB-231 breast) | TGI (MDA-MB-435) | TGI (NCI-H23 lung) | TGI (NCI-H460 lung) | TGI (OVCAR-3 ovarian) | TGI (OVCAR-4 ovarian) | TGI (OVCAR-5 ovarian) | TGI (SF-268 CNS) | TGI (SF-295 CNS) | TGI (SF-539 CNS) | TGI (SK-MEL-2 melanoma) | TGI (SK-MEL-28 melanoma) | TGI (SK-OV-3 ovarian) | TGI (SN12C renal) | TGI (SNB-19 CNS) | TGI (TK-10 renal) | TGI (U251 CNS) | TGI (UACC-257 melanoma) | TGI (UACC-62 melanoma) | TGI (UO-31 renal)
37.5 µM: TGI (NCI-H522 lung)
90.6 µM: TGI (PC-3 prostate)
81.6 µM: TGI (SNB-75 CNS)
79.6 µM: TGI (HOP-92 NSCLC)

CC(=O)O[C@H](C[C@H](C(C)C)N(C)C(=O)[C@@H](NC(=O)[C@H]1CCCCN1C)C(C)C)c1nc(C(=O)N[C@@H](Cc2ccccc2)C[C@H](C)C(=O)O)c(C(C)C)s1
> 27.4 µM: TGI (CAKI-1 renal)
> 22.6 µM: TGI (RPMI-8226 leukemia)
< 0.033 µM: TGI (COLO 205 colon)
5.05 µM: TGI (NCI-H460 lung)
0.00391 µM: TGI (SF-539 CNS)
2 µM: TGI (HCC-2998 colon)
9.51 µM: TGI (786-0 renal)
0.00641 µM: TGI (SK-MEL-5 melanoma)
0.0827 µM: TGI (DU-145 prostate)
0.499 µM: TGI (NCI-H522 lung)
0.0147 µM: TGI (BT-549 breast)
active: GI50 (786-0 renal) < 0.00333 µM | GI50 (A498 renal) < 0.00333 µM | GI50 (A549 NSCLC) 0.00495 µM | GI50 (ACHN renal) 0.00458 µM | GI50 (BT-549 breast) 0.00338 µM | GI50 (CAKI-1 renal) < 0.00333 µM | GI50 (CCRF-CEM leukemia) < 0.00333 µM | GI50 (COLO 205 colon) < 0.00333 µM | GI50 (DU-145 prostate) < 0.00333 µM | GI50 (EKVX NSCLC) 0.00336 µM | GI50 (HCC-2998 colon) < 0.00333 µM | GI50 (HCT-116 colon) < 0.00333 µM | GI50 (HCT-15 colon) 0.0101 µM | GI50 (HL-60(TB) leukemia) < 0.00333 µM | GI50 (HOP-62 NSCLC) < 0.00333 µM | GI50 (HOP-92 NSCLC) 0.00521 µM | GI50 (HS 578T breast) < 0.00333 µM | GI50 (HT29 colon) < 0.00333 µM | GI50 (IGROV1 ovarian) < 0.00333 µM | GI50 (K-562 leukemia) < 0.00333 µM | GI50 (KM12 colon) < 0.00333 µM | GI50 (LOX IMVI melanoma) < 0.00333 µM | GI50 (M14 melanoma) < 0.00333 µM | GI50 (MALME-3M melanoma) < 0.00333 µM | GI50 (MCF7 breast) < 0.00333 µM | GI50 (MDA-MB-231 breast) < 0.00333 µM | GI50 (MOLT-4 leukemia) < 0.00333 µM | GI50 (NCI-H226 lung) 0.00335 µM | GI50 (NCI-H23 lung) < 0.00333 µM | GI50 (NCI-H460 lung) < 0.00333 µM | GI50 (NCI-H522 lung) < 0.00333 µM | GI50 (NCI/ADR-RES ovarian) 0.0691 µM | GI50 (OVCAR-3 ovarian) < 0.00333 µM | GI50 (OVCAR-4 ovarian) 0.00673 µM | GI50 (OVCAR-5 ovarian) 0.0176 µM | GI50 (OVCAR-8 ovarian) < 0.00333 µM | GI50 (PC-3 prostate) < 0.00333 µM | GI50 (RPMI-8226 leukemia) < 0.00333 µM | GI50 (RXF 393 renal) < 0.00333 µM | GI50 (SF-268 CNS) < 0.00333 µM | GI50 (SF-295 CNS) < 0.00333 µM | GI50 (SF-539 CNS) < 0.00333 µM | GI50 (SK-MEL-2 melanoma) < 0.00333 µM | GI50 (SK-MEL-5 melanoma) < 0.00333 µM | GI50 (SK-OV-3 ovarian) < 0.00333 µM | GI50 (SN12C renal) < 0.00333 µM | GI50 (SNB-19 CNS) < 0.00333 µM | GI50 (SNB-75 CNS) < 0.00333 µM | GI50 (SR leukemia) < 0.00333 µM | GI50 (SW-620 colon) < 0.00333 µM | GI50 (U251 CNS) < 0.00333 µM | GI50 (UACC-62 melanoma) < 0.00333 µM | GI50 (UO-31 renal) 0.0161 µM
0.382 µM: TGI (NCI-H226 lung)
< 0.00333 µM: TGI (A498 renal) | TGI (HL-60(TB) leukemia)
> 33.3 µM: TGI (A549 NSCLC) | TGI (CCRF-CEM leukemia) | TGI (EKVX NSCLC) | TGI (HCT-15 colon) | TGI (HOP-62 NSCLC) | TGI (HT29 colon) | TGI (IGROV1 ovarian) | TGI (K-562 leukemia) | TGI (MALME-3M melanoma) | TGI (MCF7 breast) | TGI (MOLT-4 leukemia) | TGI (NCI-H23 lung) | TGI (OVCAR-4 ovarian) | TGI (OVCAR-5 ovarian) | TGI (OVCAR-8 ovarian) | TGI (PC-3 prostate) | TGI (RXF 393 renal) | TGI (SF-268 CNS) | TGI (SK-OV-3 ovarian) | TGI (SN12C renal) | TGI (SNB-19 CNS) | TGI (SR leukemia) | TGI (SW-620 colon) | TGI (TK-10 renal) | TGI (U251 CNS) | TGI (UACC-257 melanoma) | TGI (UACC-62 melanoma) | TGI (UO-31 renal)
0.00598 µM: TGI (OVCAR-3 ovarian)
29.1 µM: TGI (SNB-75 CNS)
inactive: GI50 (TK-10 renal) 0.475 µM | GI50 (UACC-257 melanoma) > 33.3 µM
10.5 µM: TGI (LOX IMVI melanoma)
> 18.5 µM: TGI (ACHN renal)
0.161 µM: TGI (M14 melanoma)
0.773 µM: TGI (HCT-116 colon)
19.2 µM: TGI (SK-MEL-2 melanoma)
3.08 µM: TGI (HS 578T breast)
0.297 µM: TGI (SF-295 CNS)
> 15.5 µM: TGI (HOP-92 NSCLC) | TGI (MDA-MB-231 breast)
